The assay concerns BDF1 mice, Adenocarcinoma 755 s.c., tumor weight T/C. Description: NCI In Vivo Anticancer Drug Screen. Data for tumor model Adenocarcinoma 755 (subcutaneous) in B6D2F1 (BDF1) mice. Particulars: endpoint: mean tumor weight, higher = larger tumour. In short, it runs like this:
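Values express treated (T) relative to vehicle-dosed control (C) animals, based on survival or tumour size measured after compound treatment of mice bearing a transplanted tumour.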

Where [1] appears, read: dose: 75.0 mg/kg/injection, schedule: Q01DX011 (ip), vehicle: saline.
The mark [2] stands for this setting: dose: 150.0 mg/kg/injection, schedule: Q01DX011 (ip), vehicle: saline.
[3] abbreviates: dose: 50.0 mg/kg/injection, schedule: Q01DX011 (ip), vehicle: other.

Several values for one entry are separate records, joined by “and”; a condition that tells them apart may be missing. Equal entries are not always repeated.

As for `Cc1ncc(CO)c(C)c1O`, the T/C (commonly the ratio of treated to control) reads like this: (dose: 12.5 mg/kg/injection, schedule: Q01DX011 (ip), vehicle: saline) 48 % of control; (dose: 22.78 mg/kg/injection, schedule: Q01DX011 (ip), vehicle: carboxymethylcellulose (CMC)) 81 % of control; (dose: 25.0 mg/kg/injection, schedule: Q01DX011 (ip), vehicle: methylcellulose (MC)) 98 % of control; (dose: 25.0 mg/kg/injection, schedule: Q01DX011 (ip), vehicle: saline) 45 % of control; (dose: 45.57 mg/kg/injection, schedule: Q01DX011 (ip), vehicle: carboxymethylcellulose (CMC)) 70 % of control; (dose: 50.0 mg/kg/injection, schedule: Q01DX011 (ip), vehicle: methylcellulose (MC)) 75 % of control. The T/C by setting is: (dose: 50.0 mg/kg/injection, schedule: Q01DX011 (ip), vehicle: saline) 54 % of control; (dose: 59.07 mg/kg/injection, schedule: Q01DX011 (ip), vehicle: carboxymethylcellulose (CMC)) 107 % of control; under setting [1], 50 % of control; (dose: 91.15 mg/kg/injection, schedule: Q01DX011 (ip), vehicle: carboxymethylcellulose (CMC)) 76 % of control; (dose: 100.0 mg/kg/injection, schedule: Q01DX011 (ip), vehicle: methylcellulose (MC)) 71 % of control; (dose: 100.0 mg/kg/injection, schedule: Q01DX011 (ip), vehicle: saline) 22 % of control. In addition, the T/C reads like this: (dose: 118.15 mg/kg/injection, schedule: Q01DX011 (ip), vehicle: carboxymethylcellulose (CMC)) 108 % of control; (dose: 125.0 mg/kg/injection, schedule: Q01DX011 (ip), vehicle: methylcellulose (MC)) 48 % of control; under setting [2], 30 % of control; (dose: 182.3 mg/kg/injection, schedule: Q01DX011 (ip), vehicle: carboxymethylcellulose (CMC)) 72 % of control; (dose: 200.0 mg/kg/injection, schedule: Q01DX011 (ip), vehicle: methylcellulose (MC)) 70 % of control; (dose: 236.3 mg/kg/injection, schedule: Q01DX011 (ip), vehicle: carboxymethylcellulose (CMC)) 55 % of control.

For the compound `CC(C)(CBr)C(=O)N1CCN(C(=O)C(C)(C)CBr)CC1`, the T/C by setting is: (dose: 7.0 mg/kg/injection, schedule: Q01DX011 (ip), vehicle: methylcellulose (MC)) 80 % of control; (dose: 14.0 mg/kg/injection, schedule: Q01DX011 (ip), vehicle: methylcellulose (MC)) 56 % of control.

Take `O=C(CCBr)NCCCCNC(=O)CCBr`: the T/C (dose: 56.0 mg/kg/injection, schedule: Q01DX011 (ip), vehicle: methylcellulose (MC)) is 83 % of control and the T/C (dose: 113.0 mg/kg/injection, schedule: Q01DX011 (ip), vehicle: methylcellulose (MC)) is 78 % of control.

Consider `O=C(CCBr)NCNC(=O)CCBr`, for which the T/C is, setting by setting: (dose: 28.0 mg/kg/injection, schedule: Q01DX011 (ip), vehicle: methylcellulose (MC)) 56 % of control; (dose: 57.0 mg/kg/injection, schedule: Q01DX011 (ip), vehicle: methylcellulose (MC)) 28 % of control.

Consider `C=C(Br)CN(CC)CCO`, for which the T/C under setting [3] is 66 % of control.

Regarding `Cc1ccc(C(=O)Nc2ccc(S(=O)(=O)O)c3cc(S(=O)(=O)O)cc(S(=O)(=O)O)c23)cc1NC(=O)c1cccc(NC(=O)Nc2cccc(C(=O)Nc3cc(C(=O)Nc4ccc(S(=O)(=O)O)c5cc(S(=O)(=O)O)cc(S(=O)(=O)O)c45)ccc3C)c2)c1` (tested in a mixture with another compound), the T/C (dose: 170.0 mg/kg/injection, schedule: Q01DX011 (ip), vehicle: methylcellulose (MC)) was 88 % of control and 82 % of control; the T/C (dose: 680.0 mg/kg/injection, schedule: Q01DX011 (ip), vehicle: methylcellulose (MC)) was 98 % of control.

As to `CCC1CN1P(=O)(Oc1cccc2ccccc12)N1CC1CC` (stereo not given), the T/C runs as follows: (dose: 88.0 mg/kg/injection, schedule: Q01DX011 (ip), vehicle: carboxymethylcellulose (CMC)) 42 % of control; (dose: 88.0 mg/kg/injection, schedule: Q01DX011 (ip), vehicle: methylcellulose (MC)) 80 % of control; (dose: 175.0 mg/kg/injection, schedule: Q01DX011 (ip), vehicle: methylcellulose (MC)) 92 % of control; (dose: 350.0 mg/kg/injection, schedule: Q01DX011 (ip), vehicle: methylcellulose (MC)) 59 % of control.

Take `C[C@@H]1C[C@H]2[C@@H]3CCC4=CC(=O)C=C[C@]4(C)[C@@]3(F)[C@@H](O)C[C@]2(C)[C@@]1(O)C(=O)CO`: the T/C (dose: 7.0 mg/kg/injection, schedule: Q01DX011 (sc), vehicle: steriod suspending solution) was 19 % of control and 32 % of control and 39 % of control; the T/C (dose: 14.0 mg/kg/injection, schedule: Q01DX011 (sc), vehicle: steriod suspending solution) is 1 % of control and 25 % of control; the T/C (dose: 21.0 mg/kg/injection, schedule: Q01DX011 (sc), vehicle: steriod suspending solution) is 4 % of control; the T/C (dose: 28.0 mg/kg/injection, schedule: Q01DX011 (sc), vehicle: steriod suspending solution) was 10 % of control.

For `CC1NC(=O)NC1CCCCCC(=O)O` (stereo not given), the T/C is 122 % of control (dose: 89.06 mg/kg/injection, schedule: Q01DX011 (ip), vehicle: carboxymethylcellulose (CMC)); 75 % of control (dose: 125.0 mg/kg/injection, schedule: Q01DX011 (ip), vehicle: carboxymethylcellulose (CMC)); 83 % of control (dose: 178.13 mg/kg/injection, schedule: Q01DX011 (ip), vehicle: carboxymethylcellulose (CMC)); 49 % of control (dose: 250.0 mg/kg/injection, schedule: Q01DX011 (ip), vehicle: carboxymethylcellulose (CMC)); 90 % of control (dose: 356.25 mg/kg/injection, schedule: Q01DX011 (ip), vehicle: carboxymethylcellulose (CMC)); 68 % of control (dose: 500.0 mg/kg/injection, schedule: Q01DX011 (ip), vehicle: carboxymethylcellulose (CMC)). Besides, the T/C runs as follows: (dose: 712.5 mg/kg/injection, schedule: Q01DX011 (ip), vehicle: carboxymethylcellulose (CMC)) 47 % of control; (dose: 1000.0 mg/kg/injection, schedule: Q01DX011 (ip), vehicle: carboxymethylcellulose (CMC)) 69 % of control.

With `Nc1nc(=S)c2ncn(C3CCCO3)c2[nH]1` (stereo not given), the T/C reads like this: (dose: 0.7 mg/kg/injection, schedule: Q01DX011 (ip), vehicle: carboxymethylcellulose (CMC)) 71 % of control; (dose: 1.5 mg/kg/injection, schedule: Q01DX011 (ip), vehicle: carboxymethylcellulose (CMC)) 60 % of control; (dose: 3.0 mg/kg/injection, schedule: Q01DX011 (ip), vehicle: carboxymethylcellulose (CMC)) 38 % of control; (dose: 7.5 mg/kg/injection, schedule: Q01DX011 (ip), vehicle: carboxymethylcellulose (CMC)) 2 % of control; (dose: 15.0 mg/kg/injection, schedule: Q01DX011 (ip), vehicle: carboxymethylcellulose (CMC)) 2 % of control.

Turning to `CC(C)C(Sc1nc(N)nc2nc[nH]c12)C(=O)O` (stereo not given), the T/C was 113 % of control (dose: 23.7 mg/kg/injection, schedule: Q01DX011 (ip), vehicle: carboxymethylcellulose (CMC)); 81 % of control (dose: 47.5 mg/kg/injection, schedule: Q01DX011 (ip), vehicle: carboxymethylcellulose (CMC)); 83 % of control (dose: 95.0 mg/kg/injection, schedule: Q01DX011 (ip), vehicle: carboxymethylcellulose (CMC)); 64 % of control (dose: 190.0 mg/kg/injection, schedule: Q01DX011 (ip), vehicle: carboxymethylcellulose (CMC)).

For `CN(N=O)C(=O)C1CC(=O)NC(=O)C1`, the T/C (dose: 2.5 mg/kg/injection, schedule: Q01DX011 (ip), vehicle: carboxymethylcellulose (CMC)) is 39 % of control; the T/C (dose: 5.0 mg/kg/injection, schedule: Q01DX011 (ip), vehicle: carboxymethylcellulose (CMC)) is 102 % of control; the T/C (dose: 10.0 mg/kg/injection, schedule: Q01DX011 (ip), vehicle: carboxymethylcellulose (CMC)) was 114 % of control.

In the case of `CN(C)CCCCl`, the T/C reads like this: (dose: 25.0 mg/kg/injection, schedule: Q01DX011 (ip), vehicle: other) 81 % of control; under setting [3], 83 % of control; (dose: 100.0 mg/kg/injection, schedule: Q01DX011 (ip), vehicle: other) 98 % of control.

With `CN(CCO)/N=N/c1nc[nH]c1C(N)=O`, the T/C is 60 % of control (dose: 42.0 mg/kg/injection, schedule: Q01DX011 (ip), vehicle: carboxymethylcellulose (CMC)); 57 % of control (dose: 93.0 mg/kg/injection, schedule: Q01DX011 (ip), vehicle: carboxymethylcellulose (CMC)); 26 % of control (dose: 187.0 mg/kg/injection, schedule: Q01DX011 (ip), vehicle: carboxymethylcellulose (CMC)).

For `CC(Sc1nc(N)nc2nc[nH]c12)C(=O)O` (stereo not given), the T/C by setting is: (dose: 37.5 mg/kg/injection, schedule: Q01DX011 (ip), vehicle: saline) 81 % of control; under setting [1], 74 % of control; under setting [2], 45 % of control; (dose: 300.0 mg/kg/injection, schedule: Q01DX011 (ip), vehicle: saline) 12 % of control.

The values above are taken from PubChem BioAssay AID180 (DTP/NCI, 2004).
